The results in this text go back to patent US7462600B2, “Macrolides” (Pfizer Inc, priority 2004, dated 2008).

Common to all, as to format: cell-based
Assay [1] deals with Streptococcus pneumoniae 1095. As to conditions: Streptococcus pneumoniae 1095; microtiter broth dilution. In a few lines:
(§1)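 MIC read-out follows NCCLS M100-S14 interpretation of microtiter tray broth dilution. Test agents are prepared as DMSO stocks at 40 mg/ml.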
(Dilution methods test growth across graded concentrations, often in twofold steps.)

Assay [2] has as its system Streptococcus pneumoniae 1175. The following applies: Streptococcus pneumoniae 1175; microtiter broth dilution. In a few lines:
as §1

Assay [3] relates to Streptococcus pyogenes 1079. The assay can be described thus: MIC, microtiter broth dilution (NCCLS M100-S14), S. pyogenes 1079 (ermB). As to conditions: Streptococcus pyogenes 1079. In short, it runs like this: as §1
Assay [4] has as its system Haemophilus influenzae 1218. The assay can be described thus: MIC, microtiter broth dilution (NCCLS M100-S14), H. influenzae 1218 (susceptible). The following applies: Haemophilus influenzae 1218. In short, it runs like this: as §1
For assay [5], the system named is Streptococcus pneumoniae 1016. The assay can be described thus: MIC, microtiter broth dilution (NCCLS M100-S14), S. pneumoniae 1016 (susceptible). As to conditions: Streptococcus pneumoniae 1016. In short, it runs like this: as §1

The structures appear in SMILES notation. ≈ marks a conversion by molar mass, not a printed value. A value given as a limit tells only on which side of the number the result lay.

Consider `CCC1OC(=O)C(C)C(=O)C(C)C(OC2OC(C)CC(N(C)C)C2O)C(C)(OC)CC(C)C(=O)C(C)C2N(C3CN(Cc4c(C)cnc5ccccc45)C3)C(=O)OC12C` (centres unmarked) [Example 1.98, 3-descladinosyl-11,12-dideoxy-6-O-methyl-3-oxo-12,11-(oxycarbonyl-(1-(3-methylquinoline-4-methyl)-azetidin-3-yl)-imino)-erythromycin A], for which the “MIC S. pneumo. 1095” value in assay [1] is under 0.063 µg/mL. The “MIC S. pneumo. 1175” value in assay [2] was under 0.063 µg/mL. Also, the “MIC S. pyogenes 1079” value in assay [3] stood at 0.25 µg/mL (≈ 0.304 µM). Also, in assay [4], the “MIC H. influenzae 1218” value is 2 µg/mL (≈ 2.43 µM). Besides, the “MIC S. pneumo. 1016” value in assay [5] was under 0.063 µg/mL.
Consider `CCC1OC(=O)C(C)C(=O)C(C)C(OC2OC(C)CC(N(C)C)C2O)C(C)(OC)CC(C)C(=O)C(C)C2N(C3CN(Cc4c(C)cnc5ncccc45)C3)C(=O)OC12C` (centres unmarked) [Example 1.99, 3-descladinosyl-11,12-dideoxy-6-O-methyl-3-oxo-12,11-(oxycarbonyl-(1-(3-methyl-1,8-naphthyridine-4-methyl)-azetidin-3-yl)-imino)-erythromycin A], for which, in assay [1], the “MIC S. pneumo. 1095” value was under 0.063 µg/mL. The “MIC S. pneumo. 1175” value in assay [2] is under 0.063 µg/mL. The “MIC S. pyogenes 1079” value in assay [3] is 0.5 µg/mL (≈ 0.607 µM). Moreover, the “MIC H. influenzae 1218” value in assay [4] was determined as 1 µg/mL (≈ 1.21 µM). The “MIC S. pneumo. 1016” value in assay [5] was under 0.063 µg/mL.
Regarding `CCC1OC(=O)C(C)C(=O)C(C)C(OC2OC(C)CC(N(C)C)C2O)C(C)(OC)CC(C)C(=O)C(C)C2N(C3CN(Cc4c(Cl)cnc5[nH]cnc45)C3)C(=O)OC12C` (centres unmarked) [Example 1.100, 3-descladinosyl-11,12-dideoxy-6-O-methyl-3-oxo-12,11-(oxycarbonyl-(1-(6-chloro-3H-imidazo[4,5-b]pyridine-7-methyl)-azetidin-3-yl)-imino)-erythromycin A], the “MIC S. pneumo. 1095” value in assay [1] was under 0.063 µg/mL. The “MIC S. pneumo. 1175” value in assay [2] is under 0.063 µg/mL. Further, in assay [3], the “MIC S. pyogenes 1079” value turned out to be 0.125 µg/mL (≈ 0.15 µM). For the same compound, the “MIC H. influenzae 1218” value in assay [4] is 0.5 µg/mL (≈ 0.6 µM). Besides, the “MIC S. pneumo. 1016” value in assay [5] is under 0.063 µg/mL.
In the case of `CCC1OC(=O)C(C)C(=O)C(C)C(OC2OC(C)CC(N(C)C)C2O)C(C)(OC)CC(C)C(=O)C(C)C2N(C3CN(Cc4c(OC)cnc5cccnc45)C3)C(=O)OC12C` (centres unmarked) [Example 1.101, 3-descladinosyl-11,12-dideoxy-6-O-methyl-3-oxo-12,11-(oxycarbonyl-(1-(3-methoxy-1,5-naphthyridine-4-methyl)-azetidin-3-yl)-imino)-erythromycin A], the “MIC S. pneumo. 1095” value in assay [1] was 0.125 µg/mL (≈ 0.149 µM). In addition, the “MIC S. pneumo. 1175” value in assay [2] is under 0.063 µg/mL. In addition, in assay [3], the “MIC S. pyogenes 1079” value was 0.25 µg/mL (≈ 0.298 µM). In assay [4], the “MIC H. influenzae 1218” value was 2 µg/mL (≈ 2.38 µM). In assay [5], the “MIC S. pneumo. 1016” value is under 0.063 µg/mL.
In the case of `CCC1OC(=O)C(C)C(=O)C(C)C(OC2OC(C)CC(N(C)C)C2O)C(C)(OC)CC(C)C(=O)C(C)C2N(C3CN(Cc4c(OC)ccc5ncccc45)C3)C(=O)OC12C` (centres unmarked) [Example 1.102, 3-descladinosyl-11,12-dideoxy-6-O-methyl-3-oxo-12,11-(oxycarbonyl-(1-(6-methoxyquinoline-5-methyl)-azetidin-3-yl)-imino)-erythromycin A], in assay [1], the “MIC S. pneumo. 1095” value is under 0.063 µg/mL. Besides, the “MIC S. pneumo. 1175” value in assay [2] is under 0.063 µg/mL. Further, the “MIC S. pyogenes 1079” value in assay [3] came out at 1 µg/mL (≈ 1.19 µM). Moreover, the “MIC H. influenzae 1218” value in assay [4] turned out to be 2 µg/mL (≈ 2.38 µM). Further, the “MIC S. pneumo. 1016” value in assay [5] was under 0.063 µg/mL.
As to `CCC1OC(=O)C(C)C(=O)C(C)C(OC2OC(C)CC(N(C)C)C2O)C(C)(OC)CC(C)C(=O)C(C)C2N(C3CN(Cc4ccc(Cl)cc4Cl)C3)C(=O)OC12C` (centres unmarked) [Example 1.103, 3-descladinosyl-11,12-dideoxy-6-O-methyl-3-oxo-12,11-(oxycarbonyl-(1-(2,4-dichlorobenzene-1-methyl)-azetidin-3-yl)-imino)-erythromycin A], in assay [1], the “MIC S. pneumo. 1095” value is under 0.063 µg/mL. Moreover, in assay [2], the “MIC S. pneumo. 1175” value came to 0.125 µg/mL (≈ 0.151 µM). In assay [3], the “MIC S. pyogenes 1079” value worked out at 16 µg/mL (≈ 19.4 µM). Besides, in assay [4], the “MIC H. influenzae 1218” value amounted to 0.25 µg/mL (≈ 0.302 µM). In addition, the “MIC S. pneumo. 1016” value in assay [5] was under 0.063 µg/mL.
Turning to `CCC1OC(=O)C(C)C(=O)C(C)C(OC2OC(C)CC(N(C)C)C2O)C(C)(OC)CC(C)C(=O)C(C)C2N(C3CN(Cc4ccc5c(c4)OCO5)C3)C(=O)OC12C` (centres unmarked) [Example 1.104, 3-descladinosyl-11,12-dideoxy-6-O-methyl-3-oxo-12,11-(oxycarbonyl-(1-(benzo[d][1,3]dioxole-5-methyl)-azetidin-3-yl)-imino)erythromycin A], the “MIC S. pneumo. 1095” value in assay [1] was under 0.063 µg/mL. Further, the “MIC S. pneumo. 1175” value in assay [2] was 0.125 µg/mL (≈ 0.156 µM). In assay [3], the “MIC S. pyogenes 1079” value is over 64 µg/mL. In assay [4], the “MIC H. influenzae 1218” value amounted to 0.25 µg/mL (≈ 0.312 µM). In assay [5], the “MIC S. pneumo. 1016” value was under 0.063 µg/mL.
As for `CCC1OC(=O)C(C)C(=O)C(C)C(OC2OC(C)CC(N(C)C)C2O)C(C)(OC)CC(C)C(=O)C(C)C2N(C3CN(Cc4ccc(OC)c5nccnc45)C3)C(=O)OC12C` (centres unmarked) [Example 1.105], the “MIC S. pneumo. 1095” value in assay [1] is under 0.063 µg/mL. Also, the “MIC S. pneumo. 1175” value in assay [2] came to 0.125 µg/mL (≈ 0.149 µM). Moreover, in assay [3], the “MIC S. pyogenes 1079” value worked out at 8 µg/mL (≈ 9.52 µM). Further, in assay [4], the “MIC H. influenzae 1218” value turned out to be 1 µg/mL (≈ 1.19 µM). The “MIC S. pneumo. 1016” value in assay [5] was under 0.063 µg/mL.
For the compound `CCC1OC(=O)C(C)C(=O)C(C)C(OC2OC(C)CC(N(C)C)C2O)C(C)(OC)CC(C)C(=O)C(C)C2N(C3CN(Cc4c(Br)cnc5cccnc45)C3)C(=O)OC12C` (centres unmarked) [Example 1.106, 3-descladinosyl-11,12-dideoxy-6-O-methyl-3-oxo-12,11-(oxycarbonyl-(1-(3-bromo-1,5-naphthyridine-4-methyl)-azetidin-3-yl)-imino)-erythromycin A], the “MIC S. pneumo. 1095” value in assay [1] is under 0.063 µg/mL. Also, the “MIC S. pneumo. 1175” value in assay [2] is under 0.063 µg/mL. Besides, in assay [3], the “MIC S. pyogenes 1079” value worked out at 0.25 µg/mL (≈ 0.281 µM). Also, the “MIC H. influenzae 1218” value in assay [4] came to 1 µg/mL (≈ 1.12 µM). The “MIC S. pneumo. 1016” value in assay [5] was under 0.063 µg/mL.
Regarding `CCC1OC(=O)C(C)C(=O)C(C)C(OC2OC(C)CC(N(C)C)C2O)C(C)(OC)CC(C)C(=O)C(C)C2N(C3CN(Cc4c(Cl)cnc5ccccc45)C3)C(=O)OC12C` (centres unmarked) [Example 1.107, 3-descladinosyl-11,12-dideoxy-6-O-methyl-3-oxo-12,11-(oxycarbonyl-(1-(3-chloroquinoline-4-methyl)-azetidin-3-yl)-imino)erythromycin A], in assay [1], the “MIC S. pneumo. 1095” value is under 0.063 µg/mL. The “MIC S. pneumo. 1175” value in assay [2] is under 0.063 µg/mL. The “MIC S. pyogenes 1079” value in assay [3] came to 0.25 µg/mL (≈ 0.296 µM). In addition, the “MIC H. influenzae 1218” value in assay [4] turned out to be 1 µg/mL (≈ 1.19 µM). For the same compound, in assay [5], the “MIC S. pneumo. 1016” value was under 0.063 µg/mL.
For `CCOc1cnc2ncccc2c1CN1CC(N2C(=O)OC3(C)C(CC)OC(=O)C(C)C(=O)C(C)C(OC4OC(C)CC(N(C)C)C4O)C(C)(OC)CC(C)C(=O)C(C)C23)C1` (centres unmarked) [Example 1.108, 3-descladinosyl-11,12-dideoxy-6-O-methyl-3-oxo-12,11-(oxycarbonyl-(1-(3-ethoxy-1,8-naphthyridine-4-methyl)-azetidin-3-yl)-imino)-erythromycin A], the “MIC S. pneumo. 1095” value in assay [1] is under 0.063 µg/mL. In assay [2], the “MIC S. pneumo. 1175” value is 0.125 µg/mL (≈ 0.146 µM). Further, in assay [3], the “MIC S. pyogenes 1079” value worked out at 0.5 µg/mL (≈ 0.585 µM). Besides, the “MIC H. influenzae 1218” value in assay [4] was found to be 1 µg/mL (≈ 1.17 µM). Besides, the “MIC S. pneumo. 1016” value in assay [5] was under 0.063 µg/mL.
In the case of `CCC1OC(=O)C(C)C(=O)C(C)C(OC2OC(C)CC(N(C)C)C2O)C(C)(OC)CC(C)C(=O)C(C)C2N(C3CN(C(=O)c4cncc5ccccc45)C3)C(=O)OC12C` (centres unmarked) [Example 2.01], the “MIC S. pneumo. 1095” value in assay [1] was 32 µg/mL (≈ 38.9 µM). Besides, in assay [2], the “MIC S. pneumo. 1175” value was found to be 0.25 µg/mL (≈ 0.304 µM). Moreover, in assay [3], the “MIC S. pyogenes 1079” value is over 64.00 µg/mL. Also, in assay [4], the “MIC H. influenzae 1218” value was 4 µg/mL (≈ 4.86 µM). Also, the “MIC S. pneumo. 1016” value in assay [5] was under 0.06 µg/mL.
Taken in the same sequence, the figures for `CCC1OC(=O)C(C)C(=O)C(C)C(OC2OC(C)CC(N(C)C)C2O)C(C)(OC)CC(C)C(=O)C(C)C2N(C3CN(C(=O)c4cccc5[nH]c(C)nc45)C3)C(=O)OC12C` (centres unmarked) [Example 2.02] were over 64.00 µg/mL, 2 µg/mL (≈ 2.42 µM), over 64.00 µg/mL, 2 µg/mL (≈ 2.42 µM) and under 0.06 µg/mL.
Taken in the same sequence, the figures for `CCC1OC(=O)C(C)C(=O)C(C)C(OC2OC(C)CC(N(C)C)C2O)C(C)(OC)CC(C)C(=O)C(C)C2N(C3CN(C(=O)Nc4ccc5ccccc5c4)C3)C(=O)OC12C` (centres unmarked) [Example 2.04] were 8 µg/mL (≈ 9.56 µM), under 0.06 µg/mL, 32 µg/mL (≈ 38.2 µM), 8 µg/mL (≈ 9.56 µM) and under 0.06 µg/mL.
For `CCC1OC(=O)C(C)C(=O)C(C)C(OC2OC(C)CC(N(C)C)C2O)C(C)(OC)CC(C)C(=O)C(C)C2N(C3CN(C(=O)Nc4ccc5ncccc5c4)C3)C(=O)OC12C` (centres unmarked) [Example 2.05, N-(quinolin-6-yl) aminocarbonyl] the same measures were 16 µg/mL (≈ 19.1 µM), under 0.06 µg/mL, 64 µg/mL (≈ 76.4 µM), 0.5 µg/mL (≈ 0.597 µM) and under 0.06 µg/mL.
In the case of `CCC1OC(=O)C(C)C(=O)C(C)C(OC2OC(C)CC(N(C)C)C2O)C(C)(OC)CC(C)C(=O)C(C)C2N(C3CN(C(=O)Nc4cccc5ncccc45)C3)C(=O)OC12C` (centres unmarked) [Example 2.06, 3-descladinosyl-11,12-dideoxy-6-O-methyl-3-oxo-12,11-(oxycarbonyl-(1-(N-(quinolin-5-yl)-aminocarbonyl)-azetidin-3-yl)-imino)-erythromycin A], in assay [1], the “MIC S. pneumo. 1095” value turned out to be 16 µg/mL (≈ 19.1 µM). Moreover, the “MIC S. pneumo. 1175” value in assay [2] is 0.25 µg/mL (≈ 0.298 µM). Also, the “MIC S. pyogenes 1079” value in assay [3] was over 64.00 µg/mL. Also, the “MIC H. influenzae 1218” value in assay [4] turned out to be 0.5 µg/mL (≈ 0.597 µM). Also, the “MIC S. pneumo. 1016” value in assay [5] is under 0.06 µg/mL.
